# Test results taken from US6020341A, “Enediyne quinone imines and methods of preparation and use thereof” (priority 1997, dated 2000).
# Read-outs that look alike come from different tables or passages of the source.
# Legend:
# [1] = test system: Human promyelocytic leukemic cell (HL-60); experiment: Cytotoxicity, HL-60; assay type: cell-based; details: for IC50 / IC90: Homo sapiens; for IC90: read-out: Cytotoxic Concentration IC90
# Source text: (§1) | cell growth by 50% (IC50) in μM.
# [2] = test system: Human acute lymphoblastic T cells (CCRF-CEM); experiment: Cytotoxicity, CCRF-CEM; assay type: cell-based; details: for IC50 / IC90: Homo sapiens, CCRF-CEM; for IC90: read-out: Cytotoxic Concentration IC90
# Source text: as §1
# [3] = test system: CCRF-CEM/VBL cells; experiment: Cytotoxicity, CCRF-CEM resistant to vinblastine; assay type: cell-based, human; details: for IC50 / IC90: Homo sapiens, CCRF-CEM; for IC90: read-out: Cytotoxic Concentration IC90
# Source text: as §1
# [4] = test system: CCRF-CEM/VM-1 cells; experiment: Cytotoxicity, CCRF-CEM/VM-1; assay type: cell-based, human; details: for IC50 / IC90: Homo sapiens, CCRF-CEM; for IC90: read-out: Cytotoxic Concentration IC90
# Source text: as §1
# [5] = test system: Chinese hamster lung cells resistant to actinomycin D (DC-3F/ADII); experiment: Cytotoxicity, DC-3F/ADII; assay type: cell-based; details: for IC50 / IC90: Cricetulus griseus, DC3F; for IC90: read-out: Cytotoxic Concentration IC90
# Source text: as §1
# [6] = test system: MT-2 leukemic cells; experiment: Growth inhibition, XTT assay, MT-2; assay type: cell-based; details: Table 8, MT-2, XTT
# Method: Cells were platted on day 1, drug was added on day 2, and XTT assays (for HL-60, MT-2, MT-4 leukemic cells) or SRB assays (for 833K and SK-Br-3 solid tumor cells) were carried out on day 5.
# [7] = test system: DC-3F cells; experiment: Single drug effect, SRB assay, DC-3F; assay type: cell-based, Chinese hamster; details: Cricetulus griseus, DC3F, Table 10, DC-3F, 72 h, read-out: Dm
# [8] = test system: sarcoma 180; experiment: Antitumor activity against sarcoma 180 in mice (s.c. tumor, i.p. treatment); assay type: in vivo, mouse
# Method: ^a Tumor (2 × 10^6 cells) was inoculated s.c. Treatment
# started day 4, QD × 5, i.p.; control had nine mice, and each dose
# two mice; tumor size was evaluated on Day 7 after the beginning of
# started day 4, I.P., QD × 5; control had 3 mice, and each dose had
# mice; Tumor size was evaluated on day 7 after the beginning of treatment.
# [9] = Table 14, vinblastine-resistant (VLB100)
# [10] = Table 3, CCRF-CEM/VBL, EQI-6 = (1)
# [11] = Table 3, CCRF-CEM/VM-1, EQI-6 = (1)
# [12] = Table 4, DC-3F/ADII, EQI-6 = (1)
# [13] = Table 6, 0.2 mg/kg i.p. QD×5, day 7
# [14] = Table 6, 0.5 mg/kg i.p. QD×5, day 7
# [15] = Table 6, 2.0 mg/kg i.p. QD×5, day 7
structure (smiles),measurement,setting,value
CO[C@@]12[C@H](COC(N)=O)C3=C(C(=O)C(C)=C(N)C3=O)N1C[C@@H]1N[C@@H]12 [mitomycin C],IC50,"[1]; HL-60, Table 1, HL-60, read-out: IC50",48.4 nM
same,IC50,"[1]; HL-60, Table 2, HL60, read-out: concentration required to inhibit cell growth by 50% (IC50)",48 nM
same,IC50,"[1]; HL-60, Table 3, HL-60, read-out: Cytotoxic Concentration IC50",48.4 nM
same,IC90,"[1]; HL-60, Table 3, HL-60",197 nM
same,IC50,"[1]; HL-60, Table 15, HL-60, read-out: Cytotoxic Concentration IC50",51 nM
same,IC90,"[1]; HL-60, Table 15, HL-60",167 nM
same,Cytotoxic Concentration IC95,"[1]; Table 3, HL-60",319 nM
same,ratio of IC50 to EQI-6 (in parentheses),"[1]; Table 3, HL-60, EQI-6 = (1)",83.4 ×
same,ratio of IC90 to EQI-6 (in parentheses),"[1]; Table 3, HL-60, EQI-6 = (1)",75.8 ×
same,ratio of IC95 to EQI-6 (in parentheses),"[1]; Table 3, HL-60, EQI-6 = (1)",72.5 ×
same,Cytotoxic Concentration IC95,"[1]; Table 15, HL-60",250 nM
same,IC50,"[2]; Table 1, CCRF-CEM, read-out: IC50",140 nM
same,IC50,"[2]; Table 2, CCRF/CEM, read-out: concentration required to inhibit cell growth by 50% (IC50)",140 nM
same,IC50,"[2]; Table 3, CCRF-CEM, read-out: Cytotoxic Concentration IC50",140 nM
same,IC90,"[2]; Table 3, CCRF-CEM",364 nM
same,IC50,"[2]; Table 14, CCRF-CEM, read-out: Cytotoxic Concentration IC50",96 nM
same,IC90,"[2]; Table 14, CCRF-CEM",370 nM
same,Cytotoxic Concentration IC95,"[2]; Table 3, CCRF-CEM",503 nM
same,ratio of IC50 to EQI-6 (in parentheses),"[2]; Table 3, CCRF-CEM, EQI-6 = (1)",280 ×
same,ratio of IC90 to EQI-6 (in parentheses),"[2]; Table 3, CCRF-CEM, EQI-6 = (1)",165 ×
same,ratio of IC95 to EQI-6 (in parentheses),"[2]; Table 3, CCRF-CEM, EQI-6 = (1)",136 ×
same,Cytotoxic Concentration IC95,"[2]; Table 14, CCRF-CEM",584 nM
same,IC50,"[3]; Table 2, CCRF/VBL (MDR/pg-p), read-out: concentration required to inhibit cell growth by 50% (IC50)",566 nM
same,IC50,"[3]; Table 3, CCRF-CEM/VBL, read-out: Cytotoxic Concentration IC50",566 nM
same,IC90,"[3]; Table 3, CCRF-CEM/VBL",2330 nM
same,IC50,"[3]; Table 14, vinblastine-resistant (VLB100), read-out: Cytotoxic Concentration IC50",917 nM
same,IC90,[3]; [9],2400 nM
same,Cytotoxic Concentration IC95,"[3]; Table 3, CCRF-CEM/VBL",3770 nM
same,ratio of IC50 to EQI-6 (in parentheses),[3]; [10],299.5 ×
same,ratio of IC90 to EQI-6 (in parentheses),[3]; [10],375.8 ×
same,ratio of IC95 to EQI-6 (in parentheses),[3]; [10],405.4 ×
same,Cytotoxic Concentration IC95,[3]; [9],3327 nM
same,IC50,"[4]; Table 2, CCRF/VM-1 (MDR/TopoII), read-out: concentration required to inhibit cell growth by 50% (IC50)",216 nM
same,IC50,"[4]; Table 3, CCRF-CEM/VM-1, read-out: Cytotoxic Concentration IC50",216 nM
same,IC90,"[4]; Table 3, CCRF-CEM/VM-1",895 nM
same,IC50,"[4]; Table 14, CCRF-CEM/VM-1, read-out: Cytotoxic Concentration IC50",113 nM
same,IC90,"[4]; Table 14, CCRF-CEM/VM-1",675 nM
same,Cytotoxic Concentration IC95,"[4]; Table 3, CCRF-CEM/VM-1",1373 nM
same,ratio of IC50 to EQI-6 (in parentheses),[4]; [11],113.7 ×
same,ratio of IC90 to EQI-6 (in parentheses),[4]; [11],45.5 ×
same,ratio of IC95 to EQI-6 (in parentheses),[4]; [11],90.9 ×
same,Cytotoxic Concentration IC95,"[4]; Table 14, CCRF-CEM/VM-1",1239 nM
same,IC50,"[5]; Table 2, DC-3F/ADII (MDR/Actinomycin D), read-out: concentration required to inhibit cell growth by 50% (IC50)",113 nM
same,IC50,"[5]; Table 4, DC-3F/ADII, read-out: Cytotoxic Concentration IC50",113 nM
same,IC90,"[5]; Table 4, DC-3F/ADII",380 nM
same,IC50,"[5]; Table 13, DC-3F/ADII, read-out: Cytotoxic Concentration IC50",74 nM
same,IC90,"[5]; Table 13, DC-3F/ADII",264 nM
same,Cytotoxic Concentration IC95,"[5]; Table 4, DC-3F/ADII",575 nM
same,ratio of IC50 to EQI-6 (in parentheses),[5]; [12],92.2 ×
same,ratio of IC90 to EQI-6 (in parentheses),[5]; [12],24.7 ×
same,ratio of IC95 to EQI-6 (in parentheses),[5]; [12],26.9 ×
same,Cytotoxic Concentration IC95,"[5]; Table 13, DC-3F/ADII",406 nM
same,IC50,[6],100 nM
same,IC50,[7],59 nM
same,tumor inhibition,"[8]; 0.5 mg/kg i.p. QDx5, sarcoma",37.5%
same,AVE TUMOR VOLUME (T/C),[8]; [13],0.845
same,AWC (average weight change),[8]; [13],-0.5 g
same,AVE TUMOR VOLUME (T/C),[8]; [14],0.625
same,AWC (average weight change),[8]; [14],-2.3 g
same,AVE TUMOR VOLUME (T/C),[8]; [15],0.188
same,AWC (average weight change),[8]; [15],-1.4 g
